Measured values: patent publication US8372582B2, “Methods of modulating metabolic memory” (Joslin Diabetes Center, Inc., priority 2006, dated 2013)
Entries after “also recorded” stand apart in the source; their conditions may differ.

Columns and labels:
[1] = test system: bovine retinal pericytes; assay: HG-induced apoptosis (DNA fragmentation) in cultured retinal pericytes; assay type: cell-based; conditions: for reversal of apoptosis / effects of HG once established: agent added during LG conditions after HG exposure; for effect on HG-induced apoptosis: pericytes in high glucose (20 mM), agent present with HG
Experimental: Cell apoptosis will be evaluated by measurement of DNA fragmentation using cell death detection kit (ROCHE diagnostics). Approximately 15000 cells are seeded in 96-well plates in DMEM with 20% FBS for 18 hours. BRP are starved for 24 hours and then stimulated with either 5.5 or 20 mM of d-glucose for an addition 72 hours. DNA fragmentation is measured in accordance to manufacture's protocol. Increases in caspase 3+9 cleared will also be measured using immunoblot analysis. Measurement of NF-κB activity in cultured cells. Activity of NF-κB will be assessed by a microwell colorimetric assay using the TransAM NFκB transcription factor assay kit (Active Motif, Carlsbad, Calif.) following manufacturer's instruction (Renard et al., Nucleic Acids Res 29, E21 (2001)).
Various potential mechanisms for the metabolic memory process in retinal pericytes were explored in vitro. Cells were culture in high glucose (HG, 20 mM glucose) for about 72 hours, and then for another 24 hours in low glucose (LG, 5.6 mM glucose). This mimics a period of hyperglycemia followed by normoglycemia, a common pattern in diabetics, who often have a period of poorly controlled glycemia before finding a regime that provides better control, thus providing a cultured cell model of metabolic memory.
(§1) The role of p38 MAPK was studied further using SB203580, a specific inhibitor for p38 MAPK a and […] and adenoviral vector of dominant negative p38 MAPKα and β isoforms (Wang et al., J Biol Chem 273, 2161-8 (1998)), either at the same time as starting HG condition or after 3 days of HG when cells are returning to LG condition. In addition, the effects of the antioxidant N-acetylcysteine (NAC) were also evaluated. Activation of p38 MAPK β and δ was evaluated by immunoblotting with anti-phospho p38 MAPK α and δ antibodies.

[2] = test system: p38 MAPK; assay: HG-induced p38 MAPK activation in pericytes (immunoblot); assay type: cell-based, bovine; conditions: high glucose
Description: In addition to PKC activation, the effect of HG on p38 MAPK activation was also characterized, since PKC δ activation induced by HG can activate p38 MAPK in aortic smooth muscle and renal mesangial cells. […] HG was able to increase the phosphorylation of p38 MAPK by 2-fold in pericytes after three days of exposure (FIG. 4) in parallel with PKC δ activation and increases in apoptosis; no effects on JNK were observed.
as §1

[3] = test system: PDGF-Beta receptor; assay: PDGF-BB-induced tyrosine phosphorylation of PDGF-β receptor in HG-treated pericytes (Western blot); assay type: cell-based; conditions: high glucose
Experimental: (§2) Protein tyrosine phosphatases (PTPs) play a key role in the regulation of receptor tyrosine kinases such as the PDGF-β receptor. Thus, experiments were performed to determine the pathway by which glycemic memory prevented tyrosine phosphorylation of the PDGF-Beta receptor. Cultured pericytes were exposed to either low glucose conditions (˜5.5 mM glucose, LG), high glucose conditions (˜20 mM glucose, HG), or high glucose followed by low glucose (˜20 mM, ±5.5 mM glucose, HG+LG) for 72 hours per exposure. Pericytes were lysed, and lysates were run on an SDS/PAGE gel, then transferred to nitrocellulose for immunoblotting, according to already published procedures. Commercially available antibodies for SHP-1 and another protein tyrosine phosphatase, PTP-1B were used to probe the blot, according to manufacturer's instructions.
Cultured pericytes were treated with high glucose (˜20 mM glucose) and subsequently prepared for Western blot analyses as described in Example 2. An antibody directed against phosphorylated PDGF-Beta receptor was used to assess the effects of the HG treatment on receptor phosphorylation levels.

[4] = test system: SHP-1; assay: HG-induced SHP-1 expression in pericytes (Western blot); assay type: cell-based; conditions: high glucose
Experimental: as §2

Molecule | reversal of apoptosis / effects of HG once established [1] | effect on HG-induced apoptosis [1] | prevention of HG induced p38 MAPK activation [2] | effect on HG-induced abrogation of PDGF-BB actions [3] | effect on HG-prevented tyrosine phosphorylation of PDGFR-β induced by PDGF ([3]; FIG. 16) | effect on HG-induced expression of SHP-1 [4]
CC(=O)N[C@@H](CS)C(=O)O [NAC, N-acetylcysteine] | not totally effective | partly able to prevent |  |  |  | 
CN(C)C[C@@H]1CCn2cc(c3ccccc32)C2=C(C(=O)NC2=O)c2cn(c3ccccc23)CCO1 [RBX] |  | ineffective | ineffective |  |  | 
C[S+]([O-])c1ccc(-c2nc(-c3ccncc3)c(-c3ccc(F)cc3)[nH]2)cc1 (stereo not shown) [SB203580] | not totally effective | partly able to prevent; also recorded: prevented apoptosis |  | abrogated PDGF-BB actions; also recorded: prevented | reversed | prevented
dominant negative form of SHP-1: dominant negative form of SHP-1 (Dubois et al., Nat. Med. 2006); C453S ablates phosphatase activity |  | reduces HG-induced apoptosis, even in the presence of PDGF |  |  |  | 
